Test: 13-week dietary toxicity study
Assay type: in vivo, CD [Crl:CD(SD)] rats
[1] = 140 mg/kg bw/day females, p < 0.05

With `Cc1cc(C(=O)NC(C)(C)COc2cccc3c2C(N)=NS(=O)(=O)N3)cc(C)n1.O=S(=O)(O)O` [S8069] the “pituitary/brain weight decrease vs control” value (140 mg/kg bw/day females, p < 0.01) was 17.7%, the “kidney/brain weight decrease vs control” value [1] was 8.1% and the “liver/brain weight decrease vs control” value [1] was 9.8%. For the same compound, the “pituitary gland mean absolute weight decrease vs control” value [1] was 15.1%, the “pituitary/body weight decrease vs control” value [1] was 14.6% and the “brain weight increase relative to control” value (140 mg/kg bw/day females, p > 0.05) was 3.4%. The Findings (30, 70, 140 mg/kg bw/day food ad-mix) was “No test-article related findings” and the “margin of safety (NOAEL 140 mg/kg bw/day vs PADI 47 μg/kg bw/day)” value (rat, in vivo) was > 2975 fold.

Reference: PMC5615155 (Toxicology Reports, 2017)
